Data taken from PMC7985170, “Marine Peptide-N6NH2 and Its Derivative-GUON6NH2 Have Potent Antimicrobial Activity Against Intracellular Edwardsiella tarda in vitro and in vivo” (Frontiers in Microbiology, 2021).
Converted amounts (≈) assume the structure as drawn. Where a SMILES comes first, the peptide text is derived from it. Bridges are numbered along the chain shown (N, C = ends).

Assays:
LPS = LPS binding, BODIPY-TR-cadaverine (BC) probe displacement; conditions: 0.5 μM LPS, 5 μM BC, Tris buffer pH 7.4; peptides 0.049 to 50 μM
Method: The BODIPY’-TR-cadaverine (BC) probe was used to determine the ability of peptides to bind to LPS ([Wang et al., 2020]). 0.5 μM LPS was incubated with 5 μM BC in […] Tris buffer (pH 7.4) for 4 h at 37°C. Subsequently, the peptides were added into the mixture and the final concentrations of peptides ranged from 0.049 to 50 μM. Ampicillin was used as the negative control. Changes in fluorescence were measured by a fluorescence spectrophotometry at room temperature (excitation/emission, 580/620 nm).

Gram-negative bacteria = assay: Geometric mean of MICs and therapeutic index; format: cell-based; conditions: for GM Gram-negative bacteria: geometric mean (GM) of MICs against Gram-negative bacteria; for TI Gram-negative bacteria: therapeutic index (TI), cell selectivity
Method: (§1) The antimicrobial activity of peptides was determined by the microbroth dilution method ([Zhang et al., 2014]). The bacterial strains were incubated in Mueller-Hinton (MH) medium at 28°C or 37°C overnight. Bacteria (1 × 10^5 CFU/mL) were added into 96-well plates, followed by the addition of serial dilutions of peptides (from 0.0625 to 128 μg/mL). The plates were incubated at 37°C for 18–24 h. The minimal inhibitory concentration (MIC) value was determined as the lowest peptide concentration at which no bacterial growth was observed.
(§2) The geometric mean (GM) of MICs of peptides against Gram-negative and Gram-positive bacteria was calculated, and the result was shown in Table 3. […] For Gram-negative bacteria, the TI value of GUON6NH2 (53.33) was very close to N6NH2 (58.18), while for positive bacteria, the TI value of GUON6NH2 (12.8) was slightly higher than that of N6NH2 (12.31), indicating their huge therapeutic potential. For Gram-positive bacteria, DN6NH2 had the highest TI value and the best therapeutic potential.

Gram-positive bacteria = assay: Geometric mean of MICs and therapeutic index; format: cell-based; conditions: for GM Gram-positive bacteria: geometric mean (GM) of MICs against Gram-positive bacteria; for TI Gram-positive bacteria: therapeutic index (TI), cell selectivity
Method: as §1, §2

[1] = tested on: Gram-negative and Gram-positive bacteria (ALL); assay: Geometric mean of MICs and therapeutic index; format: cell-based; conditions: for GM ALL: geometric mean (GM) of MICs, all strains; for TI ALL: therapeutic index (TI), cell selectivity
Method: as §1, §2

[2] = format: cell-based, Streptococcus enteritidis
Method: as §1

S. typhimurium ATCC14028 = format: cell-based, Salmonella typhimurium
Method: as §1

E. tarda = assay: SEM and TEM morphology; format: cell-based, Edwardsiella tarda; conditions: 4× MIC, 2 h
Method: To further characterize the bactericidal effects of the peptides, scanning electron microscopy (SEM) and transmission electron microscopy (TEM) were used to visualize morphological changes ([Yang et al., 2019]). E. tarda was cultured to logarithmic growth stage (10^8 CFU/mL) and diluted with 0.01 M PBS (pH 7.4) to OD600 nm = 1. E. tarda cells were treated with 4× MIC peptides at 37°C for 2 h and the untreated cells were used as the control. Briefly, after centrifugation, the bacterial cells were washed three times with 0.1 M PBS (pH 7.2) and fixed overnight at 4°C with 2.5% glutaraldehyde. After washing again, the cells were fixed with 1% osmium tetroxide (OsO4) for 2 h and dehydrated in a graded ethanol series (50%–70%–85%–95% × 2–100%, × 2) for 15 min, respectively. The samples were then dried by CO2, sputtered with gold-palladium, and observed on a QUANTA200 SEM (FEI, Philips, Netherlands).
E. tarda cells were treated peptides before fixation as described above. The bacteria were washed with 0.01 M PBS (pH 7.4) for five times, 7 min each time, and fixed with 1% osmium acid buffer (4°C) for 1 h. After dehydration with a graded acetone series (30%–50%–70%–85%–95%–100% × 3), the cells were immersed in mixtures of acetone and resin (3:1, 1:1 and 1:3, respectively) for 40 min and in a pure epoxy resin overnight. The samples were then embedded in embedding medium and polymerized at 45°C for 3 h and at 65°C for 24 h, respectively. The sections were prepared using an ultramicrotome, stained with 1% uranyl acetate, and visualized by a JEM1400 (JEDL, Tokyo, Japan).

Edwardsiella tarda = format: cell-based
Method: as §1

[3] = tested on: Salmonella pullorum CVCC1802; format: cell-based
Method: as §1

Escherichia coli CVCC195 = format: cell-based
Method: as §1

[4] = tested on: Salmonella typhimurium CVCC533; format: cell-based; conditions: murium CVCC533
Method: as §1

[5] = tested on: Staphylococcus hyicus 437-2; format: cell-based
Method: as §1

[6] = tested on: Staphylococcus aureus ATCC43300; format: cell-based
Method: as §1

S. pullorum CVCC1789 = format: cell-based, Salmonella pullorum
Method: as §1

E. coli CVCC1515 = format: cell-based, Escherichia coli
Method: as §1

E. coli CVCC25922 = format: cell-based, Escherichia coli
Method: as §1

murine erythrocytes = format: cell-based, mouse
Method: The hemolysis of peptides was evaluated by determining the amount of hemoglobin that was released from fresh mouse erythrocytes ([Flamm et al., 2019]). The blood cells were washed three times with 10 mM PBS (pH 7.4) and centrifuged for 10 min (1,500 rpm). Erythrocyte solution (8%, v/v) was mixed with peptide solutions (1:1) and incubated for 1 h at 37°C. The mixture was then centrifuged for 5 min (1,500 rpm), and the absorbance of supernatants was measured at 540 nm. Values of 0 and 100% hemolysis were determined in PBS and 0.1% triton X-100, respectively. The hemolysis of peptides was calculated using the following formula: Hemolysis (%) = [(Abs treated sample – Abs negative control)/(Abs positive control – Abs negative control)] × 100.

S. hyicus 15095 = format: cell-based, Staphylococcus hyicus
Method: as §1

S. aureus ATCC25923 = format: cell-based, Staphylococcus aureus
Method: as §1

S. aureus ATCC546 = format: cell-based, Staphylococcus aureus
Method: as §1

[7] = tested on: inner membrane of E. tarda; assay: Inner membrane penetration, PI staining by flow cytometry; format: cell-based, Edwardsiella tarda; conditions: 1× MIC, 5–30 min at 37°C, 1 × 10^8 CFU/mL
Method: Mid-log phase E. tarda cells (1 × 10^8 CFU/mL) were incubated with or without 1× MIC peptides solutions at 37°C for 5, 15, and 30 min, respectively. After washing twice with PBS, bacterial cells were then incubated with 50 μg/mL propidium iodide (PI) for 15 min and analyzed using a FACS Calibur Flow Cytometer (BD, United States) ([Stearns-Kurosawa et al., 2011]).

CC(C)[C@H]1NC(=O)CNC(=O)[C@@H](CC(N)=O)NC(=O)[C@@H](CCCNC(=N)N)NC(=O)[C@@H](Cc2ccc(O)cc2)NC(=O)[C@@H](C(C)C)NC(=O)[C@H](NC(=O)[C@H](NC(=O)[C@@H](CC(N)=O)NC(=O)[C@@H](Cc2c[nH]c3ccccc23)NC(=O)[C@@H](C)NC(=O)[C@@H](Cc2ccccc2)NC(=O)CN)C(C)C)CSSC[C@H](C(=O)N[C@H](Cc2c[nH]cn2)C(=O)N[C@H](CCCNC(=N)N)C(=O)N[C@H](CCCNC(=N)N)C(=O)N[C@H](C)C(=O)N[C@H](CC(N)=O)C(N)=O)NC(=O)[C@@H](C(C)C)NC(=O)[C@@H](CCCNC(=N)N)NC1=O [DN6NH2]
ability to bind to LPS (BC probe displacement) (LPS): V112N6NH2 > GUON6NH2 > N6NH2 > DN6NH2 > N6PNH2 | GM Gram-negative bacteria (Gram-negative bacteria): 8.2 µg/mL | TI Gram-negative bacteria (Gram-negative bacteria): 31.22 | GM Gram-positive bacteria (Gram-positive bacteria): 8 µg/mL | TI Gram-positive bacteria (Gram-positive bacteria): 32 | GM ALL [1]: 8.13 µg/mL | TI ALL [1]: 31.49 | MIC [2]: 2 µg/mL (≈ 0.808 µM) | MIC (S. typhimurium ATCC14028): 8 µg/mL (≈ 3.23 µM) | morphological changes by SEM (E. tarda): no significant change in the bacterial cell structures | MIC (Edwardsiella tarda): 8 µg/mL (≈ 3.23 µM) | MIC [3]: 8 µg/mL (≈ 3.23 µM) | MIC (Escherichia coli CVCC195): 8 µg/mL (≈ 3.23 µM) | MIC [4]: 16 µg/mL (≈ 6.46 µM) | MIC [5]: 8 µg/mL (≈ 3.23 µM) | MIC [6]: 4 µg/mL (≈ 1.62 µM) | MIC (S. pullorum CVCC1789): 16 µg/mL (≈ 6.46 µM) | MIC (E. coli CVCC1515): 4 µg/mL (≈ 1.62 µM) | MIC (E. coli CVCC25922): 8 µg/mL (≈ 3.23 µM) | MHC (murine erythrocytes): >128 µg/mL | MIC (S. hyicus 15095): 4 µg/mL (≈ 1.62 µM) | MIC (S. aureus ATCC25923): 8 µg/mL (≈ 3.23 µM) | MIC (S. aureus ATCC546): 16 µg/mL (≈ 6.46 µM) | penetration rate (PI-stained cells) [7]: 1.3–16.1%

CC(C)[C@@H]1NC(=O)CNC(=O)[C@H](CC(N)=O)NC(=O)[C@H](CCCNC(=N)N)NC(=O)[C@H](Cc2ccc(O)cc2)NC(=O)[C@H](C(C)C)NC(=O)[C@@H](NC(=O)[C@@H](NC(=O)[C@H](CC(N)=O)NC(=O)[C@H](Cc2c[nH]c3ccccc23)NC(=O)[C@H](C)NC(=O)[C@H](Cc2ccccc2)NC(=O)CN)C(C)C)CSSC[C@@H](C(=O)N[C@@H](Cc2c[nH]cn2)C(=O)N[C@@H](CCCNC(=N)N)C(=O)N2CCC[C@H]2C(=O)N[C@@H](C)C(=O)N[C@@H](CC(N)=O)C(N)=O)NC(=O)[C@H](C(C)C)NC(=O)[C@H](CCCNC(=N)N)NC1=O [N6PNH2] (H-GFAWNVCVYRNGVRVCHRPAN-NH2; disulfide 7-16 (inferred); N-terminus assumed)
ability to bind to LPS (BC probe displacement) (LPS): V112N6NH2 > GUON6NH2 > N6NH2 > DN6NH2 > N6PNH2 | GM Gram-negative bacteria (Gram-negative bacteria): 13.4 µg/mL | TI Gram-negative bacteria (Gram-negative bacteria): 19.1 | GM Gram-positive bacteria (Gram-positive bacteria): 115.2 µg/mL | TI Gram-positive bacteria (Gram-positive bacteria): 2.22 | GM ALL [1]: 47.33 µg/mL | TI ALL [1]: 5.41 | MIC [2]: 2 µg/mL (≈ 0.828 µM) | MIC (S. typhimurium ATCC14028): 16 µg/mL (≈ 6.62 µM) | MIC (Edwardsiella tarda): 32 µg/mL (≈ 13.2 µM) | MIC [3]: 8 µg/mL (≈ 3.31 µM) | MIC (Escherichia coli CVCC195): 8 µg/mL (≈ 3.31 µM) | MIC [4]: 32 µg/mL (≈ 13.2 µM) | MIC [5]: >64 µg/mL | MIC [6]: >64 µg/mL | MIC (S. pullorum CVCC1789): 16 µg/mL (≈ 6.62 µM) | MIC (E. coli CVCC1515): 4 µg/mL (≈ 1.66 µM) | MIC (E. coli CVCC25922): 8 µg/mL (≈ 3.31 µM) | MHC (murine erythrocytes): >128 µg/mL | MIC (S. hyicus 15095): 64 µg/mL (≈ 26.5 µM) | MIC (S. aureus ATCC25923): >64 µg/mL | MIC (S. aureus ATCC546): >64 µg/mL | penetration rate (PI-stained cells) [7]: 0.42–2.20%
